According to PMC11376040, “A novel PDHK inhibitor restored cognitive dysfunction and limited neurodegeneration without affecting amyloid pathology in 5xFAD mouse, a model of Alzheimer’s disease” (Alzheimer's Research & Therapy, 2024):

Tests used:
Assay in all cases: PDH-coupled PDHK assay (residual PDH activity, NADH absorbance at […] nm), […] ATP
Type in all cases: biochemical
[1] = target: T1, human PDHK2 (hPDHK2, pyruvate dehydrogenase kinase 2) (Homo sapiens, UniProt Q15119)
T1 construct: gene PDK2; recombinant, Flag-tag at the N-terminus; with PDH enzyme derived from porcine heart (PDH/PDHK complex)

[2] = target: T2, human PDHK1 (hPDHK1, pyruvate dehydrogenase kinase 1) (Homo sapiens, UniProt Q15118)
T2 construct: gene PDK1; recombinant, Flag-tag at the N-terminus; with PDH enzyme derived from porcine heart (PDH/PDHK complex)

[3] = target: T3, human PDHK3 (hPDHK3, pyruvate dehydrogenase kinase 3) (Homo sapiens, UniProt Q15120)
T3 construct: gene PDK3; recombinant, Flag-tag at the N-terminus; with PDH enzyme derived from porcine heart (PDH/PDHK complex)
T3 sequence (Q15120 whole entry): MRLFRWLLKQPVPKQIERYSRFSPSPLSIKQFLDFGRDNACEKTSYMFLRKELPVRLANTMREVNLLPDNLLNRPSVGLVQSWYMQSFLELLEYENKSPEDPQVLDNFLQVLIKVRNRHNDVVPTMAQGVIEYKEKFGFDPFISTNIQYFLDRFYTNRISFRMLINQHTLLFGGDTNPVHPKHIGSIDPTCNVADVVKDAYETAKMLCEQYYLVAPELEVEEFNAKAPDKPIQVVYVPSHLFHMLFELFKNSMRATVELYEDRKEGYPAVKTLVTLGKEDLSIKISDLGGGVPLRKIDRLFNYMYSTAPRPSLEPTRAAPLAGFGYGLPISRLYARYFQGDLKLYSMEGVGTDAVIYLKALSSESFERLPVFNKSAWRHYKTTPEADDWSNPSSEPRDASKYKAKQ

T2 sequence (Q15118 29-436): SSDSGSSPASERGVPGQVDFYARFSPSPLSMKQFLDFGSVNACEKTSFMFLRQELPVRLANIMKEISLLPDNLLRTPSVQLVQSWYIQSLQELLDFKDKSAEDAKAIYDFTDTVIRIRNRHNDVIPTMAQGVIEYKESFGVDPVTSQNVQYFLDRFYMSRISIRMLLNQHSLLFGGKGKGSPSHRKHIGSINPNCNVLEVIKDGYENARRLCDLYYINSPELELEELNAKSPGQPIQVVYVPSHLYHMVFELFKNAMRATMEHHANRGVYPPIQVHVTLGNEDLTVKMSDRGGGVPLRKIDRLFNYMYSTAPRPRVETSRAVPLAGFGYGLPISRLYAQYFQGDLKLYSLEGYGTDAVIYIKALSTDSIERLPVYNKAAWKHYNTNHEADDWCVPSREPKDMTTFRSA

C[C@H]1CN(C(=O)c2c(F)cc(C#N)cc2F)Cc2cnc([C@@](C)(O)C(F)(F)F)n21 [Compound A]
IC50 [1]: 5.33 ± 0.12 nM
IC50 [2]: 8.17 ± 0.56 nM
IC50 [3]: 50.5 ± 3.23 nM
